pIC50: −log10 of the molar value.

Usually pIC50 stands for the IC50 on a negative log10 scale, so that one unit is a factor of ten.

This test addresses T1, G1 APOL1 (Homo sapiens, UniProt O14791, I384M/S342G).
T1 construct: expressed in transfected cells
T1 sequence (O14791 28-398 S342G/I384M): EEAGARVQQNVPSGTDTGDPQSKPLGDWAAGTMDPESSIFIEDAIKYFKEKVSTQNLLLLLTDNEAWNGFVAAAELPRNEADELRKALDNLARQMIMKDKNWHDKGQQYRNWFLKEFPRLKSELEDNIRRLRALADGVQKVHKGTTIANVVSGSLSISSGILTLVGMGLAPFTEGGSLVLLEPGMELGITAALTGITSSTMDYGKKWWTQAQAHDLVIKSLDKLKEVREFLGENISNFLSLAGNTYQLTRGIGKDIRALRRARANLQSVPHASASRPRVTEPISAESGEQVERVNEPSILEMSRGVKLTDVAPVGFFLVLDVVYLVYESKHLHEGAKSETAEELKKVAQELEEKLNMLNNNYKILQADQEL
The experiment in a line: Acute APOL1 Thallium Assay with inducible stable clones of HEK 293 cells. It counts as cell-based. Particulars: Table 24, Compounds 287 to 465; read-out: Thallium Assay (IC50). The procedure, abridged: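 Readout: Tl+-triggered fluorescence, FLIPR, reflecting potassium flux through APOL1 pores after cells take up an AM-ester thallium indicator. Cells: HEK T-Rex stable clone G1 DC3.25, APOL1 G1 induced by tetracycline, seeded 26000 per well.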
`O=C(CC1CC(c2c(-c3ccc(F)cc3)[nH]c3c(F)cc(F)cc23)C1)NCCO` (stereo not shown) [Compound 459]: the pIC50 was below 6.00.
Regarding `COCCNC(=O)CC1CC(c2c(-c3ccc(F)cc3)[nH]c3c(F)cc(F)cc23)C1` (stereo not shown) [Compound 460], the pIC50 is below 6.00.
In the case of `O=C(CC1CC(c2c(-c3ccc(F)cc3)[nH]c3c(F)cc(F)cc23)C1)N[C@H](CO)C(F)(F)F` (stereo partly shown) [Compound 461], the pIC50 is below 6.00.
Turning to `O=C(CC1CC(c2c(-c3ccc(F)cc3)[nH]c3c(F)cc(F)cc23)C1)N[C@@H](CO)C(F)(F)F` (stereo partly shown) [Compound 462], the pIC50 is below 6.00.
Under `C[C@H](CO)NC(=O)C1CCC(c2c(-c3ccc(F)cc3)[nH]c3c(F)cc(F)cc23)C1` (stereo partly drawn) [Compound 463, 3-[5,7-difluoro-2-(4-fluorophenyl)-1H-indol-3-yl]-N-[(1R)-2-hydroxy-1-methyl-ethyl]cyclopentanecarboxamide] stands below 6.00; under `CCNC(=O)N1CC(c2c(-c3ccc(F)cc3)[nH]c3c(F)cc(F)cc23)C1` [Compound 464, 3-[5,7-difluoro-2-(4-fluorophenyl)-1H-indol-3-yl]-N-ethyl-azetidine-1-carboxamide], 6.00 to 6.60; under `O=C(NCC(F)F)N1CC(c2c(-c3ccc(F)cc3)[nH]c3c(F)cc(F)cc23)C1` [Compound 465, 3-(5,7-difluoro-2-(4-fluorophenyl)-1H-indol-3-yl)-N-(2,2-difluoroethyl)azetidine-1-carboxamide], 6.00 to 6.60.

Values taken from US12116343B2, “Inhibitors of APOL1 and methods of using same” (Vertex Pharmaceuticals Incorporated, priority 2020, dated 2024).
